Structures can show the parent of a compound that is named as a salt.
What was measured:
[1] = test system: human platelets; experiment: Inhibition of the binding of ^3 H-BIBU 52 to human platelets (fibrinogen binding test); conditions: ^3 H-BIBU 52 5 nM, human platelet-rich plasma, room temperature, 20 minutes; 50% inhibition of binding
Protocol: 1. Inhibition of the binding of ^3 H-BIBU 52 to human platelets
The free and bound ligand is separated by centrifugation and quantitatively determined by scintillation counting. From the measurements, the inhibition of ^3 H-BIBU 52 binding by the test substance is determined.
For this purpose, donor blood is taken from an anticubital vein and anticoagulated with trisodium citrate (final concentration 13 mM). The blood is centrifuged at 170×g for 10 minutes and the supernatant platelet-rich plasma (PRP) is removed. The remaining blood is intensely centrifuged off once more to obtain plasma. The PRP is diluted 1:10 with autologous plasma. […] are incubated with […] of physiological saline solution, 100 ml of test substance solution, 50 ml of ^14 C-sucrose (3700 Bq) and 50 ml of ^3 H-BIBU-52 (final concentration: 5 nM at room temperature for 20 minutes. To measure the non-specific binding, instead of the test substance 5 ml of BIBU 52 (final concentration: […]) are employed. The samples are centrifuged at 10,000×g for 20 seconds and the supernatant is removed. 100 ml of this are measured to determine the free ligand. The pellet is dissolved in 500 ml of 0.2N NaOH, and 450 ml are treated with 2 ml of scintillator and 25 ml of 5N Hcl and measured. The residual plasma still remaining in the pellet is determined from the ^14 C content, the bound ligand from ^3 H-measurement.

[2] = test system: platelet aggregation; experiment: Inhibition of collagen-induced platelet aggregation (Born and Cross) in platelet-rich plasma; type: cell-based, human (platelet-rich plasma of healthy subjects); conditions: human platelet-rich plasma, 10 minutes preincubation at 37° C., 50% change in optical density
Protocol: 2. Antithrombotic effect Platelets aggregation is measured by the method of Born and Cross (J. Physiol. 170, 397 (1964)) in platelet-rich plasma of healthy subjects. To inhibit clotting, the blood is treated with sodium citrate, 3.14% in the volume ratio 1:10. Collagen-induced aggregation The course of the decrease in the optical density of the platelet suspension is measured and recorded photometrically after addition of the aggregation-inducing substance. From the angle of inclination of the density curve, the aggregation rate is deduced. The point of the curve at which the greatest light transmission exists is used to calculate the optical density. The amount of collagen is selected to be as low as possible, but in such a way that a reaction curve with an irreversible course results. Commercially available collagen from Hormonchemie, Munich, is used. Before the addition of collagen, the plasma is in each case incubated at 37° C. with the substance for 10 minutes. From the measurements obtained, an EC50 is determined graphically which relates to a 50% change in the optical density in the sense of an inhibition of aggregation.

Row | Structure (SMILES) | IC50 [1] [nM] | EC50 [2] [nM]
1 | O=C(O)CC[C@H]1CC[C@H](NC(=O)c2cn(C3CCNCC3)cn2)CC1 [Example 4, 4-[[trans-4-(2-Carboxyethyl)cyclohexyl]aminocarbonyl]-1-(4-piperidyl)imidazole dihydrochloride] | 120 | 160
2 | O=C(N[C@H]1CC[C@H](C(=O)O)CC1)c1cn(CCC2CCNCC2)cn1 [4(27), 4-[[trans-4-Carboxycyclohexyl]aminocarbonyl]-1-[2-(4-piperidyl)ethyl]imidazole dihydrochloride] | 190 | 280
3 | COC(=O)COc1ccc(NC(=O)c2sc(C3CCNCC3)nc2C)cc1 [2(3), 5-[[4-(Methoxycarbonylmethoxy)phenyl]aminocarbonyl]-4-methyl-2-(4-piperidyl)-1,3-thiazole hydrobromide] | 300 | 140
4 | O=C(O)CO[C@H]1CC[C@H](NC(=O)c2cnc(C3CCNCC3)s2)CC1 [2(12), 5-[[trans-4-(Carboxymethoxy)cyclohexyl]aminocarbonyl]-2-(4-piperidyl)-1,3-thiazole hydrobromide] | 72 | 140
5 | O=C(O)COc1ccc(NC(=O)c2nnc(C3CCNCC3)s2)cc1 [4(6), 5-[[4-(Carboxymethoxy)phenyl]aminocarbonyl]-2-(4piperidyl)-1,3,4-thiadiazole hydrochloride] | 64 | 170
6 | CS(=O)(=O)N(CC(=O)O)[C@H]1CC[C@H](C(=O)Nc2cn(C3CCNCC3)cn2)CC1 [5(2), 4-[[trans-4-(N-Carboxymethyl-N-methanesulphonylamino)-cyclohexyl]carbonylamino]-1-(4-piperidyl)imidazole dihydrochloride] | 1600 | 3800
7 | O=C(/C=C/c1cn(C2CCNCC2)cn1)N[C@H]1CC[C@H](C(=O)O)CC1 [4(8), 4-[trans-2-[(trans-4-Carboxycyclohexyl)aminocarbonyl]-ethenyl]-1-(4-piperidyl)imidazole dihydrochloride] | 2500 | 1800
8 | Cc1nc(C2CCNCC2)sc1C(=O)Nc1ccc(OCC(=O)O)cc1 [4(3), 5-[[4-(Carboxymethoxy)phenyl]aminocarbonyl]-4-methyl-2-(4-piperidyl)-1,3-thiazole hydrobromide] | 45 | 130
9 | O=C(O)COc1ccc(NC(=O)c2cnc(C3CCNCC3)s2)cc1 [4(19), 5-[[4-(Carboxymethoxy)phenyl]aminocarbonyl]-2-(4-piperidyl)-1,3-thiazole hydrate] | 38 | 100
10 | O=C(O)CC[C@H]1CC[C@H](NC(=O)c2cnc(C3CCNCC3)s2)CC1 [4(20), 5-[[trans-4-(2-Carboxyethyl)cyclohexyl]aminocarbonyl]-2-(4-piperidyl)-1,3-thiazole hydrobromide] | 63 | 120
